Assay results reported in US8304450B2, “Stable pharmaceutical compositions with docetaxel” (Quiral Quimica Do Brasil S.A., priority 2003, dated 2012).

Legend:
[1] = Comparative stability study between the tri-hydrate and anhydrous forms of docetaxel (bulk substance); type: physicochemical; parameters: Assay (H2O): unit not given here; settings: for A % Docetaxel / A % Impurities (unknown) / Assay (H2O): bulk substance; for A % Docetaxel: amber glass vials under N2 over P2O5, −5 to 0° C.; for A % Docetaxel / A % Impurities (unknown): HPLC; for A % Impurities (unknown) / Assay (H2O): −5 to 0° C.; for Assay (H2O): Karl Fischer titration
Procedure: Comparative stability study between the tri-hydrate and anhydrous forms of (2R,3S)4-acetoxy-2-α-benzoyloxy-5β-20-epoxy-1,7-β-10-β-tri-hydroxy-9-oxo-tax-11-en-13α-il 3-tert-butoxycarbonylamino-2-hydroxy-3-phenylpropionate
Analysis was realized by HPLC using a Waters Spherisorb® C-18, 250×5 mm column, mobile phase MeOH:H2O 85:15, flow 1.5 mL/min. Related impurities reported as A % discounting the peak due to the dead volume. Samples were stored in amber glass vials under N2 in a dessicator over P2O5 maintained between −5 and 0° C.

[2] = Comparative stability study of solutions of docetaxel tri-hydrate and anhydrous forms in polysorbate 80 with and without acid; type: physicochemical; settings: solutions in polyethoxylated sorbitol previously or posteriorly acidified
[3] = statement of patent application PI 9508789-3; cited from earlier work
[4] = stored under adequate and controlled conditions

Structure (SMILES)	A % Docetaxel ([1]; 0 months)	A % Impurities (unknown) ([1]; 0 months)	Assay (H2O) ([1]; 0 months)	A % Docetaxel ([1]; 3 months)	A % Impurities (unknown) ([1]; 3 months)	Assay (H2O) ([1]; 3 months)	A % Docetaxel ([1]; 6 months)	A % Impurities (unknown) ([1]; 6 months)	Assay (H2O) ([1]; 6 months)	A % Docetaxel ([1]; 12 months)	A % Impurities (unknown) ([1]; 12 months)	Assay (H2O) ([1]; 12 months)	A % Docetaxel ([1]; 18 months)	A % Impurities (unknown) ([1]; 18 months)	Assay (H2O) ([1]; 18 months)	A % Docetaxel ([1]; 24 months)	A % Impurities (unknown) ([1]; 24 months)	Assay (H2O) ([1]; 24 months)	also measured
CC(=O)O[C@@]12CO[C@@H]1C[C@H](O)[C@@]1(C)C(=O)[C@H](O)C3=C(C)[C@@H](OC(=O)[C@H](O)[C@@H](NC(=O)OC(C)(C)C)c4ccccc4)C[C@@](O)([C@@H](OC(=O)c4ccccc4)[C@H]21)C3(C)C [Docetaxel (anhydrous), (2R,3S)4-acetoxy-2-α-benzoyloxy-5β-20-epoxy-1,7-β-10-β-tri-hydroxy-9-oxo-tax-11-en-13α-il 3-tert-butoxycarbonylamino-2-hydroxy-3-phenylpropionate]	99.28 A %	0.72 A %	0.10	99.21 A %	0.79 A %	0.11	99.26 A %	0.73 A %	0.12	98.93 A %	1.07 A %	0.09	98.65 A %	1.35 A %	0.12	98.29 A %	1.71 A %	0.13	re-hydration on storage [1, 4]: does not re-hydrate to a significant degree; stability of anhydrous product compared with tri-hydrate [1, 4]: stability equal or superior to the tri-hydrate; stability conferred to the pharmaceutical finished dosage form [2]: equal or superior stability
CC(=O)O[C@@]12CO[C@@H]1C[C@H](O)[C@@]1(C)C(=O)[C@H](O)C3=C(C)[C@@H](OC(=O)[C@H](O)[C@@H](NC(=O)OC(C)(C)C)c4ccccc4)C[C@@](O)([C@@H](OC(=O)c4ccccc4)[C@H]21)C3(C)C [Docetaxel (tri-hydrate), tri-hydrate of (2R,3S)4-acetoxy-2-α-benzoyloxy-5β-20-epoxy-1,7-β-10-β-tri-hydroxy-9-oxo-tax-11-en-13α-il 3-tert-butoxycarbonylamino-2-hydroxy-3-phenylpropionate]	99.51 A %	0.49 A %	6.32	99.23 A %	0.77 A %	6.35	99.30 A %	0.70 A %	6.21	98.91 A %	1.09 A %	6.42	98.72 A %	1.28 A %	6.31	98.21 A %	1.79 A %	6.29	stability of tri-hydrate relative to anhydrous product [3]: clearly superior stability relative to the anhydrous product
